This note sets out measurements from ChEMBL document CHEMBL1201862, “PubChem BioAssay data set” (2004).

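Step 1: Grow cells in 96-well plates. Step 2: Expose to compound for 48 hours at 5 concentrations. Step 3: Interpolate endpoints linearly; if unreached, use highest concentration. Abbreviation: GI50, concentration required for 50% inhibition of growth.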 Activity calls are given as the source filed them. Rule as the data show it: active = GI50 up to about 1.1 µM and inactive = higher.

Some test systems named below: UACC-257; HCT-116; SK-MEL-28; Hs-578T; TK-10; NCI/ADR-RES; SF-295; HOP-62; SK-MEL-2; PC-3; MCF7; NCI-H460; LOX IMVI; NCI-H522; MDA-N; RPMI-8226; MDA-MB-231; UO-31; HCT-15; OVCAR-3.
Common to all, as to test: NCI-60 cell line screen, 48 h

As for `Nc1nc(-c2cc(-c3cccc4ccccc34)nc(N)n2)cc(-c2cccc3ccccc23)n1`, the GI50 in the assay on UACC-257, in the assay with HCT-116, with SK-MEL-28, in the assay with Hs-578T, with TK-10 and in the assay on NCI/ADR-RES was > 100 µM (inactive) throughout. The GI50 in the assay on SF-295 was 65.8 µM (inactive); with HOP-62, > 100 µM (inactive); in the assay on SK-MEL-2, > 100 µM (inactive); in the assay with PC-3, > 100 µM (inactive); in the assay with MCF7, > 100 µM (inactive); with NCI-H460, > 100 µM (inactive). Besides, the GI50 in the assay on LOX IMVI, with NCI-H522, with MDA-N, in the assay with RPMI-8226, in the assay on MDA-MB-231 and in the assay with UO-31 was > 100 µM (inactive) each time. Besides, the GI50 with HCT-15 was over 100 µM; with OVCAR-3, > 100 µM (inactive).

Take `N/N=C(\C(=O)Nc1ccc([N+](=O)[O-])cc1)C(C1=Nc2cc([N+](=O)[O-])ccc2NC1)[N+](=O)[O-]` (configuration not stated): the GI50 was > 100 µM (inactive) in the assay on UACC-257; 79.1 µM (inactive) in the assay on HCT-116; > 100 µM (inactive) in the assay on SK-MEL-28; > 100 µM (inactive) in the assay with Hs-578T; > 100 µM (inactive) in the assay with TK-10; > 100 µM (inactive) in the assay on NCI/ADR-RES. Moreover, the GI50 is > 100 µM (inactive) with SF-295; > 100 µM (inactive) in the assay on HOP-62; > 100 µM (inactive) in the assay with SK-MEL-2; > 100 µM (inactive) in the assay on PC-3; 44.3 µM (inactive) with MCF7; 42.2 µM (inactive) with NCI-H460. Also, the GI50 was 74.8 µM (inactive) in the assay on LOX IMVI; 25.3 µM (inactive) in the assay with NCI-H522; > 100 µM (inactive) in the assay with MDA-N; > 100 µM (inactive) in the assay on RPMI-8226; > 100 µM (inactive) in the assay on MDA-MB-231; 22.1 µM (inactive) with UO-31. Moreover, the GI50 in the assay with HCT-15 is over 100 µM; in the assay on OVCAR-3, > 100 µM (inactive).

`Nn1c(CCCCCCCCc2nnc(-c3c(O)ccc4ccccc34)n2N)nnc1-c1c(O)ccc2ccccc12`: the GI50 in the assay with UACC-257, in the assay with HCT-116, with SK-MEL-28, in the assay with Hs-578T, in the assay on TK-10 and in the assay with NCI/ADR-RES was > 100 µM (inactive) each time. For the same compound, the GI50 in the assay with SF-295, in the assay with HOP-62, with SK-MEL-2, in the assay with PC-3, in the assay with MCF7 and in the assay on NCI-H460 was > 100 µM (inactive) throughout. Further, the GI50 in the assay on LOX IMVI, with NCI-H522, with MDA-N, with RPMI-8226, in the assay on MDA-MB-231 and in the assay with UO-31 was > 100 µM (inactive) each time. The results for the GI50 in the assay on HCT-15 and in the assay with OVCAR-3 were over 100 µM and > 100 µM (inactive), respectively.

Take `CCCCNc1nc(N)nc(Nc2ccc(Br)cc2)c1N=O`: the GI50 is > 100 µM (inactive) in the assay with UACC-257; 84.9 µM (inactive) in the assay with HCT-116; > 100 µM (inactive) in the assay on SK-MEL-28; 27.5 µM (inactive) in the assay on Hs-578T; > 100 µM (inactive) with TK-10; 39.4 µM (inactive) in the assay with NCI/ADR-RES. Further, the GI50 in the assay on HOP-62 is 37.2 µM (inactive); with SK-MEL-2 it was > 100 µM (inactive); in the assay with PC-3 it was 67.5 µM (inactive); in the assay on MCF7, 74.6 µM (inactive); in the assay on NCI-H460 it was 70 µM (inactive); with LOX IMVI, 31.6 µM (inactive). Further, the GI50 in the assay on NCI-H522 was 36.4 µM (inactive); in the assay with MDA-N it was > 100 µM (inactive); in the assay on RPMI-8226, 52 µM (inactive); in the assay with MDA-MB-231, 41.8 µM (inactive); in the assay on UO-31, 28.1 µM (inactive); in the assay with HCT-15, 78 µM. The GI50 in the assay on OVCAR-3 was 56.5 µM (inactive).

Take `CC(NC(=O)C(N)CC(=O)O)NC(=O)N1CCCC1` (configuration not stated): the GI50 with UACC-257, in the assay on HCT-116, in the assay with SK-MEL-28, with Hs-578T, in the assay with TK-10 and in the assay on NCI/ADR-RES was > 100 µM (inactive) each time. Also, the GI50 in the assay with SF-295, in the assay with HOP-62, in the assay on SK-MEL-2, in the assay with PC-3, in the assay with MCF7 and with NCI-H460 was > 100 µM (inactive) in each case. For the same compound, the GI50 in the assay with LOX IMVI, in the assay with NCI-H522, with MDA-N, with RPMI-8226, in the assay on MDA-MB-231 and with UO-31 was > 100 µM (inactive) each time. Also, the GI50 in the assay with HCT-15 is over 100 µM; in the assay with OVCAR-3 it was > 100 µM (inactive).

`Nc1nc(N)c(N=O)c(Nc2ccc(O)cc2)n1`: the GI50 with UACC-257 was > 66.8 µM (inactive); in the assay with HCT-116, > 73.3 µM (inactive); with SK-MEL-28, 11.5 µM (inactive); with Hs-578T it was 13.7 µM (inactive); in the assay on TK-10, > 63 µM (inactive); in the assay with NCI/ADR-RES it was 1.58 µM (inactive). The GI50 in the assay on SF-295 is > 44.7 µM (inactive); with HOP-62, 37.5 µM (inactive); in the assay with SK-MEL-2, > 62.1 µM (inactive); in the assay with PC-3 it was 32.2 µM (inactive); in the assay with MCF7 it was 5.97 µM (inactive); with NCI-H460, > 61.1 µM (inactive). The GI50 is 30.3 µM (inactive) with LOX IMVI; 15.9 µM (inactive) with NCI-H522; 28.8 µM (inactive) in the assay with MDA-N; > 44.4 µM (inactive) in the assay with RPMI-8226; > 58.3 µM (inactive) in the assay on MDA-MB-231; 41.5 µM (inactive) in the assay on UO-31. Besides, the GI50 with HCT-15 is over 57.3 µM; in the assay on OVCAR-3, 47.2 µM (inactive).

Take `CCOC(=O)C1=NOC2(C=C(Br)C(=O)C(Br)=C2)C1`: the GI50 in the assay with UACC-257 is 1.34 µM (inactive); in the assay on HCT-116, 1.1 µM (active); in the assay with SK-MEL-28, 6.75 µM (inactive); with Hs-578T, 22.1 µM (inactive); in the assay on TK-10, 0.902 µM (active); with NCI/ADR-RES, 2.97 µM (inactive). Also, the GI50 with SF-295 is 15.5 µM (inactive); in the assay with HOP-62, 6.41 µM (inactive); in the assay with SK-MEL-2 it was 6.84 µM (inactive); in the assay on PC-3, 2.29 µM (inactive); in the assay with MCF7 it was 2.45 µM (inactive); in the assay on NCI-H460, 6.55 µM (inactive). Moreover, the GI50 in the assay on LOX IMVI is 2.47 µM (inactive); with NCI-H522 it was 0.335 µM (active); with MDA-N, 1.64 µM (inactive); in the assay with RPMI-8226, 0.217 µM (active); with MDA-MB-231, 6.78 µM (inactive); in the assay on UO-31, 1.09 µM (active). Also, the GI50 was 2.03 µM in the assay with HCT-15 and 1.39 µM (inactive) in the assay with OVCAR-3.

Consider `O=[N+]([O-])c1ccc(/C=C\c2ccc3c(c2)OCO3)c([N+](=O)[O-])c1`, for which the GI50 in the assay with UACC-257 is 17.3 µM (inactive); with HCT-116, 5.53 µM (inactive); in the assay with SK-MEL-28, 17.1 µM (inactive); with Hs-578T, 16.8 µM (inactive); with TK-10 it was 17.3 µM (inactive); with NCI/ADR-RES, 29.2 µM (inactive). For the same compound, the GI50 was 23 µM (inactive) with SF-295; 25.1 µM (inactive) in the assay with HOP-62; 18.3 µM (inactive) in the assay with SK-MEL-2; 24.8 µM (inactive) in the assay on PC-3; 1.86 µM (inactive) in the assay on MCF7; 19.5 µM (inactive) in the assay with NCI-H460. For the same compound, the GI50 in the assay on LOX IMVI was 13.4 µM (inactive); in the assay with NCI-H522, 12.7 µM (inactive); in the assay with MDA-N it was 5.52 µM (inactive); with RPMI-8226, 4.39 µM (inactive); in the assay with MDA-MB-231, 17.2 µM (inactive); in the assay with UO-31, 19.9 µM (inactive). Moreover, the GI50 is 14.6 µM in the assay on HCT-15 and 18.2 µM (inactive) with OVCAR-3.

As for `CC(C)=NOC(=O)OC[C@H]1O[C@@H](n2cnc3c(N)ncnc32)C(O)C1O` (some centres not stated), the GI50 with SK-MEL-28, with Hs-578T, with TK-10, in the assay with NCI/ADR-RES, with SF-295 and in the assay on HOP-62 was > 100 µM (inactive) in each case. Further, the GI50 was > 100 µM (inactive) in the assay on SK-MEL-2; > 100 µM (inactive) in the assay on PC-3; 91.6 µM (inactive) in the assay on MCF7; 40.9 µM (inactive) in the assay on NCI-H460; 44.9 µM (inactive) with LOX IMVI; > 100 µM (inactive) in the assay on NCI-H522. The GI50 in the assay with MDA-N was 43.3 µM (inactive); with RPMI-8226, 52 µM (inactive); in the assay with MDA-MB-231, > 100 µM (inactive); in the assay with UO-31 it was > 100 µM (inactive); in the assay with HCT-15, 72.1 µM; with OVCAR-3, > 100 µM (inactive).

For `C[C@H](OC(=O)/C=C/c1ccc(O)c(O)c1)[C@H](C)OC(=O)/C=C/c1ccc(O)c(O)c1`, the GI50 is 10.1 µM (inactive) in the assay with UACC-257; 3.72 µM (inactive) in the assay on HCT-116; 11.5 µM (inactive) with SK-MEL-28; 6.65 µM (inactive) in the assay with Hs-578T; 10 µM (inactive) in the assay with TK-10; 12.2 µM (inactive) in the assay with NCI/ADR-RES. Further, the GI50 was 6.27 µM (inactive) in the assay on SF-295; 11.1 µM (inactive) in the assay on HOP-62; 10.4 µM (inactive) in the assay on SK-MEL-2; 13.1 µM (inactive) with PC-3; 6.28 µM (inactive) in the assay on MCF7; 4.11 µM (inactive) in the assay with NCI-H460. The GI50 was 3.35 µM (inactive) in the assay with LOX IMVI; 6.98 µM (inactive) with NCI-H522; 4.45 µM (inactive) in the assay with MDA-N; 9.59 µM (inactive) in the assay with RPMI-8226; 10.9 µM (inactive) with MDA-MB-231; 4.8 µM (inactive) in the assay with UO-31. Besides, the figures for the GI50 with HCT-15 and in the assay on OVCAR-3 were 4.71 µM and 4.24 µM (inactive), respectively.
